Source: patent US12622965B2, “Therapeutical tools and methods using temperature-sensitive receptors for treating blindness” (FRIEDRICH MIESCHER INSTITUTE FOR BIOMEDICAL RESEARCH, priority 2020, dated 2026)

What was measured:
rd1 cones = test: two-photon calcium imaging of cone cell bodies and axon terminals in wholemount rd1 retinas; type: cell-based, mouse
Excerpt: To measure if NIR light drives responses in cones, the inventors performed two-photon calcium imaging of individual cone cell bodies and axon terminals in wholemount rd1 retinas in three conditions: first, rTRPV1 with 915 nm nanorods, second, rTRPV without nanorods and third, 915 nm nanorods without rTRPV1. To detect calcium signals, the inventors genetically targeted the calcium indicator GCaMP6s to cones via AAV that expresses GCaMP6s under a cone-specific promoter (ProA7). GCaMP6s was expressed in 67±5.1% of rd1 cones (n=12,813 cones mm−2, n=8635 GCaMP6s positive cones mm−2, mean±s.d).
Near-infrared (NIR) pulses were produced by two custom-made, single wavelength NIR diode lasers emitting at 915 nm or 980 nm, modelled after J. Yao, B. Liu, and F. Qin. […] Total laser power output, as a function of driving voltage, was measured by placing cannula (CFM14L20) and patch cable (M37L02) output at the entrance of an integrating sphere photodiode power sensor (Thorlabs, S142C) with a PM100D read-out unit. Oscilloscope read-out of laser response time was obtained by applying a step control voltage to the lasers. […]
For two-photon calcium imaging of mouse cone photoreceptors, wild-type and rd1 retinas were isolated in oxygenated Ringer's medium. […] Fluorescence was analyzed semi-online via custom-made software written in Python by Z. Raics (A. Drinnenberg et al. Neuron 99, 117-134 e111 (2018)). […]

[1] = tested on: cone photoreceptors of the rd1 mouse; test: AAV transduction of rd1 mouse cones after subretinal injection, quantified by immunofluorescence and confocal imaging; type: in vivo
Excerpt: The inventors targeted rTRPV1 to cone photoreceptors of the Pde6brd1 (known as rd1) mouse via subretinal injection of adeno-associated virus (AAV) and a photoreceptor-specific promoter (mCar) to restrict expression. Rd1 mice have severe photoreceptor degeneration with complete loss of rod and dysfunctional light-insensitive cone photoreceptors by four weeks of age postnatal (P28). 55±10% of rd1 cones expressed rTRPV1 in the cell membrane (n=12,813 cones mm−2, n=7042 TRPV1 positive cones mm−2, mean±s.d). 98±1.6% of rat TRPV1 positive cells were cones (n=7216 TRPV1 positive cells mm−2, n=7042 TRPV1 positive cones mm−2, mean±s.d).
Ocular injections to deliver AAVs expressing TRP variants and/or functionalized nanorods were performed on 4 week old mice anesthetized with 2.5% isoflurane. A small incision was made with a sharp 30 gauge needle at the nasal corneo-scleral junction and AAV and/or nanorods were co-injected through this incision into the subretinal space using a blunt 5 μL Hamilton syringe held in a micromanipulator. For cone photoreceptor activity monitoring, cone specific AAV-ProA7-GCaMP6s (11) was co-injected subretinally with rTRPV1 and/or nanorods. A maximum volume of 2.5 μL was administered per eye. For primary visual cortex activity monitoring, AAV-pCAG-FLEX2-tTA2 was delivered by intravenous retro-orbital injection as previously described by D. Hillier et al. Nat Neurosci 20, 960-968 (2017) 2 weeks after initial ocular injection of rTRPV1 and nanorods. […]
A Zeiss LSM 700 laser scanning confocal microscope was used to acquire images of antibody stained cells and tissues with an EC Plan-Neofluar 40×/1.30 oil M27 objective at up to 4 excitation laser lines according to secondary antibody specification. Expression was assessed from 1024×1024 pixel images in a z-stack with 0.75 μm steps. […] AAV transduction was quantified from retinal wholemounts. […] Quantification was performed separately for outer nuclear layer, inner nuclear layer and ganglion cell layer.

[2] = AAV, mCar promoter, subretinal injection, mean±s.d

## TRPV1.465-6x-His: rat TRPV1 channel with 6x-His epitope tag inserted in the first extracellular loop after amino acid 465; delivered by AAV
rd1 cones
  reaction of rTRPV1 expressing cones to light without nanorods: did not react to light
[1]; [2]
  channel (TRPV1 or Ollas) positive cells that were cones: 98±1.6%
  rd1 cones expressing the channel in the cell membrane: 55±10%
[1]; rd1 mouse
  expression of the 6x-His tag in TRPV1 positive cones: All TRPV1 positive cones expressed the 6x-His tag
